Measured values reported in US20160222056A1, “SUBSTITUTED PHENYLALANINE DERIVATIVES” (BAYER PHARMA AKTIENGESELLSCHAFT, priority 2013, published 2016).
pIC50: −log10 of the molar value. Where a name gives a salt, the structure may show the parent alone. Read-outs that look alike come from different tables or passages of the source.

Tests used:
human factor XIa = target: T1, human factor XIa (Homo sapiens, UniProt P03951); assay: Measurement of FXIa inhibition (fluorogenic peptide substrate); assay type: biochemical
T1 construct: purchased Kordia
Description: To determine the factor XIa inhibition of the substances according to the invention, a biochemical test system is used which utilizes the reaction of a peptidic factor XIa substrate to determine the enzymatic activity of human factor XIa. Here, factor XIa cleaves from the peptic factor XIa substrate the C-terminal aminomethylcoumarin (AMC), the fluorescence of which is measured. The determinations are carried out in microtitre plates.
Test substances are dissolved in dimethyl sulphoxide and serially diluted in dimethyl sulphoxide (3000 μM to 0.0078 μM; resulting final concentrations in the test: 50 μM to 0.00013 μM). In each case 1 μl of the diluted substance solutions are placed into the wells of white microtitre plates from Greiner (384 wells). Subsequently, the following are added successively: 20 μl of assay buffer (50 mmol/1 Tris buffer pH 7.4; 100 mmol/1 sodium chloride; 5 mmol/1 calcium chloride; 0.1% bovine serum albumin) and 20 μl of factor XIa from Kordia (0.45 nM in assay buffer). After 15 min of incubation, the enzyme reaction is started by addition of 20 μl of the factor XIa substrate Boc-Glu(OBzl)-Ala-Arg-AMC dissolved in assay buffer (10 μM in assay buffer) from Bachem, the mixture is incubated at room temperature (22° C.) for 30 min and fluorescence is then measured (excitation: 360 nm, emission: 460 nm). The measured emissions of the test batches with test substance are compared to those of control batches without test substance (only dimethyl sulphoxide instead of test substance in dimethyl sulphoxide), and the IC50 values are calculated from the concentration/activity relationships.

human and animal plasma = assay: Anticoagulatory activity: activated partial thromboplastin time (aPTT) in plasma; assay type: biochemical; conditions: in vitro in plasma, C.K. Prest kit, 37° C. for 3 minutes; plasma species of Table B not stated
Description: The anticoagulatory activity of the test substances is determined in vitro in human and animal plasma (for example mouse, rat, rabbit, pig and dog plasma). To this end, blood is drawn off in a mixing ratio of sodium citrate/blood of 1:9 using a 0.11 molar sodium citrate solution as receiver. Immediately after the blood has been drawn off, it is mixed thoroughly and centrifuged at about 4000 g for 15 minutes. The supernatant is pipetted off.
The activated partial thromboplastin time (aPTT) is determined in the presence of varying concentrations of test substance or the corresponding solvent using a commercial test kit (C.K. Prest from Diagnostica Stago). The test compounds are incubated with the plasma and the PTT reagent (cephalin, kaolin) at 37° C. for 3 minutes. Coagulation is then started by addition of 25 mM aqueous calcium chloride, and the time when coagulation occurs is determined. The concentration of test substance which brings about a 1.5-fold extension of the aPTT is determined.

[1] = human factor XIa from Kordia, substrate Boc-Glu(OBzl)-Ala-Arg-AMC, 30 min at 22° C., read-out: IC50 (FXIa inhibition)

T1 sequence (P03951 388-625 limits assumed): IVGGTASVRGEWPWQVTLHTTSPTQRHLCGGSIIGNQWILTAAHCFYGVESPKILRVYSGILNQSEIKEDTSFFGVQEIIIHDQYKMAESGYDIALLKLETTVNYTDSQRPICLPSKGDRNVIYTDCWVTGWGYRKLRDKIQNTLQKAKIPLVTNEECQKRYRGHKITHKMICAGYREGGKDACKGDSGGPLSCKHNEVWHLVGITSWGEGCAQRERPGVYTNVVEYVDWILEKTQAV
T1 sequence (P03951 19-387 partner limits assumed): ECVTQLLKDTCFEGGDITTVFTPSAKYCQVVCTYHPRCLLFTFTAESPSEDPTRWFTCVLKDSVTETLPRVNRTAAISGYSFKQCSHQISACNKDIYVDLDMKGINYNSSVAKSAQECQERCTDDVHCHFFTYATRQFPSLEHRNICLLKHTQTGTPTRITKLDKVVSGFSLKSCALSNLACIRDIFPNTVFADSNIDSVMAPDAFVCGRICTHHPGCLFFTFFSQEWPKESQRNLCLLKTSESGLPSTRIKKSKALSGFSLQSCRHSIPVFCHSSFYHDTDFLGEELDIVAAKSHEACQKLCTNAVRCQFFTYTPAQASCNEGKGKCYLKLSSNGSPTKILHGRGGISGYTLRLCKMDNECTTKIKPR

| pIC50 (human factor XIa; [1]) | pIC50 (human factor XIa) | Structure (SMILES) | aPTT (concentration of test substance which brings about a 1.5-fold extension of the aPTT) (human and animal plasma) [µmol/L] |
| --- | --- | --- | --- |
| 8.49 |  | Cc1nc(C(=O)N[C@H]2CCNC2)ccc1-c1ccc(C[C@H](NC(=O)[C@H]2CC[C@H](CN)CC2)C(=O)Nc2ccc(-c3nn[nH]n3)cc2)cc1 [Example 15, N-alpha-{[trans-4-(Aminomethyl)cyclohexyl]carbonyl}-4-{2-methyl-6-[(3S)-pyrrolidin-3-ylcarbamoyl]pyridin-3-yl}-N-[4-(2H-tetrazol-5-yl)phenyl]-L-phenylalaninamide hydrochloride] | 0.1 |
| 8.09 |  | Cc1nc(C(=O)NC2C3CNCC32)ccc1-c1ccc(C[C@H](NC(=O)[C@H]2CC[C@H](CN)CC2)C(=O)Nc2ccc(-c3nn[nH]n3)cc2)cc1 (stereo partly drawn) [Example 16, N-alpha-{[trans-4-(Aminomethyl)cyclohexyl]carbonyl}-4-[6-(3-azabicyclo[3.1.0]hex-6-ylcarbamoyl)-2-methylpyridin-3-yl]-N-[4-(2H-tetrazol-5-yl)phenyl]-L-phenylalaninamide hydrochloride] | 0.11 |
| 8.30 |  | Cc1nc(C(=O)N[C@@H]2CCNC2)ccc1-c1ccc(C[C@H](NC(=O)[C@H]2CC[C@H](CN)CC2)C(=O)Nc2ccc(-c3nn[nH]n3)cc2)cc1 [Example 17, N-alpha-{[trans-4-(Aminomethyl)cyclohexyl]carbonyl}-4-{2-methyl-6-[(3R)-pyrrolidin-3-ylcarbamoyl]pyridin-3-yl}-N-[4-(2H-tetrazol-5-yl)phenyl]-L-phenylalaninamide hydrochloride] | 0.12 |
|  | 8.35 | Cc1nc(C(=O)N[C@@H]2CCN[C@H](C)C2)ccc1-c1ccc(C[C@H](NC(=O)[C@H]2CC[C@H](CN)CC2)C(=O)Nc2ccc(-c3nn[nH]n3)cc2)cc1 [Example 18, N-alpha-{[trans-4-(Aminomethyl)cyclohexyl]carbonyl}-4-(2-methyl-6-{[(2R,4R)-2-methylpiperidin-4-yl]carbamoyl}pyridin-3-yl)-N-[4-(2H-tetrazol-5-yl)phenyl]-L-phenylalaninamide hydrochloride] | 0.12 |

The next lines start with the compound.

| Structure (SMILES) | pIC50 (human factor XIa; [1]) | pIC50 (human factor XIa) | aPTT (concentration of test substance which brings about a 1.5-fold extension of the aPTT) (human and animal plasma) [µmol/L] |
| --- | --- | --- | --- |
| Cc1cc(C(=O)NCCCN(C)C)ncc1-c1ccc(C[C@H](NC(=O)[C@H]2CC[C@H](CN)CC2)C(=O)Nc2ccc(-c3nnn[nH]3)cc2)cc1 [Example 12, N-alpha-{[trans-4-(Aminomethyl)cyclohexyl]carbonyl}-4-(6-{[3-(dimethylamino)propyl]-carbamoyl}-4-methylpyridin-3-yl)-N-[4-(1H-tetrazol-5-yl)phenyl]-L-phenylalaninamide hydrochloride] | 8.32 |  | 0.08 |
| Cc1cc(C(=O)N[C@H]2CC[C@H](N3CCOCC3)CC2)ncc1-c1ccc(C[C@H](NC(=O)[C@H]2CC[C@H](CN)CC2)C(=O)Nc2ccc(-c3nnn[nH]3)cc2)cc1 [Example 13, N-alpha-{[trans-4-(Aminomethyl)cyclohexyl]carbonyl}-4-(4-methyl-6-{[trans-4-(morpholin-4-yl)cyclohexyl]carbamoyl}pyridin-3-yl)-N-[4-(1H-tetrazol-5-yl)phenyl]-L-phenylalaninamide hydrochloride] | 9.05 |  | 0.08 |
| Cc1nc(C(=O)N[C@H]2CCNC2)ccc1-c1ccc(C[C@H](NC(=O)[C@H]2CC[C@H](CN)CC2)C(=O)Nc2ccc3[nH]c(=O)[nH]c3c2)cc1 [Example 14, N-alpha-{[trans-4-(Aminomethyl)cyclohexyl]carbonyl}-4-{2-methyl-6-[(3S)-pyrrolidin-3-ylcarbamoyl]pyridin-3-yl}-N-(2-oxo-2,3-dihydro-1H-benzimidazol-5-yl)-L-phenylalaninamide hydrochloride] | 7.52 |  | 0.08 |
